Measured values published in PMC6278857, “Anaerobic Degradation of the Plant Sugar Sulfoquinovose Concomitant With H2S Production: Escherichia coli K-12 and Desulfovibrio sp. Strain DF1 as Co-culture Model” (Frontiers in Microbiology, 2018).

Test system: T1, DhpA (DHPS dehydrogenase)
T1 construct: full-length gene, N-terminal His-tag (pET28a), from E. coli Rosetta 2 DE3
Assay: initial rate of NADH formation at […] nm
Assay type: biochemical, Desulfovibrio sp. DF1
Settings: 10 mM NAD+, 50 mM Tris-HCl, pH 9.5; racemic substrate; read-out: Kmapp

Question: Which Km does the source give for O=S(=O)(O)CC(O)CO (racemic) [DHPS] here?
Answer: The Km was 36 ± 4 µM.
